Experimental data reported in publication PMC8179358, “An explicitly designed paratope of amyloid-β prevents neuronal apoptosis in vitro and hippocampal damage in rat brain” (Chemical Science, 2020).
*1 amine or outer side, *2 acyl side, *3 side chain or, on linkers, in order; H or OH if unused. Where a SMILES comes first, the peptide text is derived from it. Bridges are numbered along the chain shown (N, C = ends). Roman numbers before positions name the chains, in order. [ ]: non-standard residue; d: D form. X1 = O=C(CCCCC(=O)[*:2])NCCCOCCOCCOCCCNC(=O)CCC(=O)[*:1]; NMeF = CN[C@@H](Cc1ccccc1)C(=O)O; NMeL = CN[C@@H](CC(C)C)C(=O)O; NMeV = CN[C@H](C(=O)O)C(C)C

What was measured:
Aβ40 = target: T1, Aβ40 (Homo sapiens, UniProt P05067); assay: NMR titration with SVD, residue-specific KD; assay type: binding; conditions: residues R5, L17, V24, K28, and G29 of Aβ40, read-out: dissociation constant (KD)
T1 construct: 15N labeled (a) Aβ40 (80 μM)

liver and kidney tissue = assay: Sub-chronic toxicity, histopathology of liver and kidney; assay type: in vivo, Sprague-Dawley rats; conditions: 100 and 500 μg kg−1, tail vein, once daily, 42 days, n = 8/group
Method: The tabulated biochemical profile (novel biomarkers of the liver and kidney) corroborates the safety charms of SP1 for further in vivo studies.
24 male Sprague Dawley rats were randomly divided into three groups: control, SP1A, and SP1B. Each group contains 8 animals and administration of SP1was performed for 42 days through a tail vein by the following schedule: Control: Without any treatment.
Rats were sacrificed after 42 days of injection schedule and blood was collected for hematological and biochemical estimations. For the histopathological study, the liver and kidney were also isolated very carefully and checked for cytoarchitectural changes if any.
The body weights and volumes of SP1 to be administered were recorded for each animal. Prior to injection, the tail of the animal was warmed by using warm water circulating pad placed under the cage for 5-10 minutes to dilate the veins. A 25-gauge needle was inserted into the vein towards the direction of the head. The needle and syringe were kept parallel to the tail. […]
The biochemical parameters including blood glucose, serum urea, creatinine, total bilirubin, serum glutamic oxaloacetic transaminase (SGOT), serum glutamic pyruvic transaminase (SGPT), and alkaline phosphatase (ALP) were analyzed for sub-chronic toxicity of SP1by using commercially available diagnostic test kits (Crest Biosystems kits, India). […]

SH-SY5Y cells = assay: Intracellular ROS (DCFH-DA); assay type: cell-based, human; conditions: Aβ40 10 μM, 24 h
From the text: Condensed or fragmented nuclear bodies characterize the distinctive nature of apoptotic cells. […] Dyshomeostasis of Ca^2+ is also responsible for the increased production of Aβ peptides, by which a degenerative feed-forward cycle is activated, resulting in accelerated apoptosis, synaptic dysfunction, and memory impairment.[49]
The release of cytosolic enzyme lactate dehydrogenase (LDH) into the culture medium indicates cell death due to the disruption of membrane integrity. Cell deathwas assessed by measuring LDH release in the culture medium by photocolorimetric kit according to the manufacturer’s protocol (Abcam, Cambridge, MA, USA). […]
Next, 50 µl culture supernatant was collected from each well and added to an assay mixture that was prepared by adding an equal amount of LDH substrate, co-factors, and dye solutions and incubated in the dark for 40mins at 37°C. […] Absorbance was measured at 490 nm with a reference filter of 660nm. […]
Generation of intracellular reactive oxygen species was measured by a spectrofluorimetric method using peroxide sensitive fluorescent probe 2′,7′-Dichlorofluorescin diacetate (DCFH-DA).11 In brief, SH-SY5Y […]
or both for 24h. […] Cells were then washed twice with PBS, and fluorescent intensity was measured by using a fluorescence microplate reader (Bio Rad, CA, USA) with an excitation filter of 490 nm and an emission filter of 520 nm.

Row | Compound | Kd (Aβ40) | cytoarchitectural changes in liver and kidney tissue (liver and kidney tissue) | ROS marker intensity, Aβ40 alone (SH-SY5Y cells)
1 | CC(C)C[C@H](NC(=O)CNC(=O)CCC(=O)NCCCOCCOCCOCCCNC(=O)CCCCC(=O)NCC(=O)N(C)[C@@H](CC(C)C)C(=O)N[C@H](C(=O)N(C)[C@@H](Cc1ccccc1)C(=O)N[C@@H](Cc1ccccc1)C(=O)N[C@@H](C)C(N)=O)C(C)C)C(=O)N(C)[C@H](C(=O)N[C@@H](Cc1ccccc1)C(=O)N(C)[C@@H](Cc1ccccc1)C(=O)N[C@@H](C)C(N)=O)C(C)C [SP1] (I: GL[NMeV]F[NMeF]A-NH2 / II: G[NMeL]V[NMeF]FA-NH2; linker I:N-II:N via X1) | ~200 µM | did not observe any cytoarchitectural changes in the liver and kidney tissue | –
2 | Aβ40: commercially available Aβ40 peptide | – | – | increased in the presence of Aβ40 compared to untreated cells
